According to patent US9469615B2, “Quinoxalines and AZA-quinoxalines as CRTH2 receptor modulators” (Merck Sharp & Dohme Corp., priority 2010, dated 2016):

Biological target: T1, hCRTH2 (Homo sapiens, UniProt Q9Y5Y4)
T1 construct: expressed in transfected cells; host or cells: HEK (human embryonic kidney) cells expressing hCRTH2; membrane preparation
T1 sequence (Q9Y5Y4 1-395): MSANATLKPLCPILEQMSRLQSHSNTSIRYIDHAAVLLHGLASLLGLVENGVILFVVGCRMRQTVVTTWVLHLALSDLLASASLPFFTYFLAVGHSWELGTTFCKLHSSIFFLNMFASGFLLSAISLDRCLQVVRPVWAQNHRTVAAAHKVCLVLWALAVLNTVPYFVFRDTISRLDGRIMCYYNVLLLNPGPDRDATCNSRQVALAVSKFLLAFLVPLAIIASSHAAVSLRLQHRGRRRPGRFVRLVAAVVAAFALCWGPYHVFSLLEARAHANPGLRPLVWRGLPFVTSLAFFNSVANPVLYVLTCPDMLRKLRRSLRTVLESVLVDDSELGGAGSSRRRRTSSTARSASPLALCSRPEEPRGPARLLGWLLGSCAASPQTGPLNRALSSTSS
Experiment: Radioligand binding assay ([3H]PGD2 competition, HEK-hCRTH2 membranes)
Conditions: [3H]PGD2 binding
In short: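 Competition against 3.0 nM [3H]PGD2 was run for 60 min at room temperature in pH 7.4 Tris-HCl buffer with EDTA, 2 mM MnCl2 and 1% DMSO, using 8-20 μg HEK-hCRTH2 membrane protein. 10 μM PGD2 set non-specific binding; filter-bound counts were read by scintillation.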

Compound	Ki (rated A-E (Table A)) [nM]	Ki (values in text) [nM]
CC(CCCc1nc2cc(C(=O)NCc3ccc(F)cc3)ccc2nc1-c1ccc(F)cc1)C(=O)O (stereo not drawn) [compound 204, 3-(4-fluorophenyl)-7-[[[(4-fluorophenyl)methyl]amino]carbonyl]-alpha-methyl-2-quinoxalinepentanoic acid]	2.1 to 20	
CC(CCCc1nc2cc(C(=O)N3CCC(c4ccccc4)CC3)ccc2nc1-c1ccc(F)cc1)C(=O)O (stereo not drawn) [compound 205, 3-(4-fluorophenyl)-alpha-methyl-7-[(4-phenyl-1-piperidinyl)carbonyl]-2-quinoxalinepentanoic acid]	2.1 to 20	
CC(CCCc1nc2cc(C(=O)N3CCN(c4ccccc4)CC3)ccc2nc1-c1ccc(F)cc1)C(=O)O (stereo not drawn) [compound 206, 3-(4-fluorophenyl)-alpha-methyl-7-[(4-phenyl-1-piperazinyl)carbonyl]-2-quinoxalinepentanoic acid]	2.1 to 20	
CC(CCCc1nc2cc(C(=O)N3CC(c4ccccc4)C3)ccc2nc1-c1ccc(F)cc1)C(=O)O (stereo not drawn) [compound 208, 3-(4-fluorophenyl)-alpha-methyl-7-[(3-phenyl-1-azetidinyl)carbonyl]-2-quinoxalinepentanoic acid]	2.1 to 20	
CC(CCCc1nc2cc(C(=O)N[C@@H](C)c3ccc(F)cc3)ccc2nc1-c1ccc(F)cc1)C(=O)O (stereo partly drawn) [compound 210, 3-(4-fluorophenyl)-7-[[[1(S)-(4-fluorophenyl)ethyl]amino]carbonyl]-alpha-methyl-2-quinoxalinepentanoic acid]	2.1 to 20	
CC(CCCc1nc2cc(C(=O)N[C@@H](CCO)c3ccccc3)ccc2nc1-c1ccc(F)cc1)C(=O)O (stereo partly drawn) [compound 213, 3-(4-fluorophenyl)-7-[[(3-hydroxy-1(S)-phenylpropyl)amino]carbonyl]-alpha-methyl-2-quinoxalinepentanoic acid]	20.1 to 200	
C[C@@H](NC(=O)c1ccc2nc(-c3ccc(C#N)cc3)c(CCCCC(=O)O)nc2c1)c1ccc(F)cc1 [compound 215, 3-(4-cyanophenyl)-7-[[[1(R)-(4-fluorophenyl)ethyl]amino]carbonyl]-2-quinoxalinepentanoic acid]	2.1 to 20	
O=C(O)CCCCc1nc2cc(C(=O)N[C@@H]3CCCc4ccccc43)ccc2nc1-c1ccc(F)cc1 [compound 217, 3-(4-fluorophenyl)-7-[[(1,2,3,4-tetrahydro-1(R)-naphthalenyl)amino]carbonyl]-2-quinoxalinepentanoic acid]	0.1 to 2	1.2
O=C(O)CCCCc1nc2cc(C(=O)N[C@@H]3CCCc4cc(F)ccc43)ccc2nc1-c1ccc(F)cc1 [compound 219, 3-(4-fluorophenyl)-7-[[(6-fluoro-1,2,3,4-tetrahydro-1(R)-naphthalenyl)amino]carbonyl]-2-quinoxalinepentanoic acid]	0.1 to 2	
O=C(O)CCCCc1nc2cc(C(=O)N[C@H]3CCCc4cc(F)ccc43)ccc2nc1-c1ccc(F)cc1 [compound 220, 3-(4-fluorophenyl)-7-[[(6-fluoro-1,2,3,4-tetrahydro-1(S)-naphthalenyl)amino]carbonyl]-2-quinoxalinepentanoic acid]	0.1 to 2	
O=C(O)CCCCc1nc2cc(C(=O)N[C@@H]3CCCc4cc(Cl)ccc43)ccc2nc1-c1ccc(F)cc1 [compound 221, 7-[[(6-chloro-1,2,3,4-tetrahydro-1(R)-naphthalenyl)amino]carbonyl]-3-(4-fluorophenyl)-2-quinoxalinepentanoic acid]	0.1 to 2	
O=C(O)CCCCc1nc2cc(C(=O)N[C@H]3CCc4cc(F)ccc43)ccc2nc1-c1ccc(F)cc1 [compound 224, 7-[[(5-fluoro-2,3-dihydro-1H-inden-1(5)-yl)amino]carbonyl]-3-(4-fluorophenyl)-2-quinoxalinepentanoic acid]	0.1 to 2	
O=C(O)CCCCc1nc2cc(C(=O)N[C@H]3CCc4cc(Cl)ccc43)ccc2nc1-c1ccc(F)cc1 [compound 226, 7-[[(5-chloro-2,3-dihydro-1H-inden-1(S)-yl)amino]carbonyl]-3-(4-fluorophenyl)-2-quinoxalinepentanic acid]	0.1 to 2	
O=C(O)CCCCc1nc2cc(C(=O)N[C@@H](c3ccc(Cl)cc3)C(F)(F)F)ccc2nc1-c1ccc(F)cc1 [compound 227, 7-[[[1(S)-(4-chlorophenyl)-2,2,2-trifluoroethyl]amino]carbonyl]-3-(4-fluorophenyl)-2-quinoxalinepentanoic acid]	0.1 to 2	
O=C(O)CCCCc1nc2cc(C(=O)N[C@H](c3ccc(Cl)cc3)C(F)(F)F)ccc2nc1-c1ccc(F)cc1 [compound 228, 7-[[[1(R)-(4-chlorophenyl)-2,2,2-trifluoroethyl]amino]carbonyl]-3-(4-fluorophenyl)-2-quinoxalinepentanoic acid]	0.1 to 2	
O=C(O)CCCCc1nc2cc(C(=O)N[C@H]3CCc4ccccc43)ccc2nc1-c1ccc(F)cc1 [compound 230, 7-[[(2,3-dihydro-1H-inden-1(S)-yl)amino]carbonyl]-3-(4-fluorophenyl)-2-quinoxalinepentanoic acid]	0.1 to 2	
C[C@@H](NC(=O)c1ccc2nc(-c3ccccc3)c(CC[C@@H]3C[C@H]3C(=O)O)nc2c1)c1ccc(Cl)cc1 [compound 232, trans-2-[2-[7-[[[1(R)-(4-chlorophenyl)ethyl]amino]carbonyl]-3-phenyl-2-quinoxalinyl]ethyl] cyclopropanecarboxylic acid]	2.1 to 20	
C[C@@H](NC(=O)c1ccc2nc(-c3ccccc3)c(CC[C@H]3C[C@@H]3C(=O)O)nc2c1)c1ccc(Cl)cc1 [compound 233, trans-2-[2-[7-[[[1(R)-(4-chlorophenyl)ethyl]amino]carbonyl]-3-phenyl-2-quinexalinyl]ethyl]cyclopropanecarboxylic acid]	2.1 to 20	

Results, then the compound that gave them:

Ki (rated A-E (Table A)) [nM]	Ki (values in text) [nM]	Compound
2.1 to 20		CC(CCCc1nc2cc(C(=O)NCc3ccc(C#N)cc3)ccc2nc1-c1ccc(F)cc1)C(=O)O (stereo not drawn) [compound 207, 7-[[[(4-cyanophenyl)methyl]amino]carbonyl]-3-(4-fluorophenyl)-alpha-methyl-2-quinoxalinepentanoic acid]
2.1 to 20		CC(CCCc1nc2cc(C(=O)N[C@H](C)c3ccc(F)cc3)ccc2nc1-c1ccc(F)cc1)C(=O)O (stereo partly drawn) [compound 209, 3-(4-fluorophenyl)-7-[[[1(R)-(4-fluorophenyl)ethyl]amino]carbonyl]-alpha-methyl-2-quinoxalinepentanoic acid]
2.1 to 20		CC(CCCc1nc2cc(C(=O)N(C)Cc3cccc(F)c3)ccc2nc1-c1ccc(F)cc1)C(=O)O (stereo not drawn) [compound 211, 3-(4-fluorophenyl)-7-[[[(3-fluorophenyl)methyl]methylamino]carbonyl]-alpha-methyl-2-quinoxalinepentanoic acid]
2.1 to 20		CC(CCCc1nc2cc(C(=O)N(C)Cc3ccccc3)ccc2nc1-c1ccc(F)cc1)C(=O)O (stereo not drawn) [compound 212, 3-(4-fluorophenyl)-alpha-methyl-7-[[methyl(phenylmethyl)amino]carbonyl]-2-quinoxalinepentanoic acid]
0.1 to 2		COc1ccc(-c2nc3ccc(C(=O)N[C@H](C)c4ccc(F)cc4)cc3nc2CCCCC(=O)O)cc1 [compound 214, 7-[[[1(R)-(4-fluorophenyl)ethyl]amino]carbonyl]-3-(4-methoxyphenyl)-2-quinoxalinepentanoic acid]
20.1 to 200		CC(C)Oc1ccc(-c2nc3ccc(C(=O)N4CCC(c5ccccc5)CC4)cc3nc2CCCCC(=O)O)cc1 [compound 216, 3-[4-(1-methyl-ethoxy)phenyl]-7-[(4-phenyl-1-piperidinyl)carbonyl]-2-quinoxalinepentanoic acid]
0.1 to 2		O=C(O)CCCCc1nc2cc(C(=O)N[C@H]3CCCc4ccccc43)ccc2nc1-c1ccc(F)cc1 [compound 218, 3-(4-fluorophenyl)-7-[[(1,2,3,4-tetrahydro-1(S)-naphthalenyl)amino]carbonyl]-2-quinoxalinepentanoic acid]
2.1 to 20		O=C(O)CCCCc1nc2cc(C(=O)N[C@H]3CCCc4cc(Cl)ccc43)ccc2nc1-c1ccc(F)cc1 [compound 222, 7-[[(6-chloro-1,2,3,4-tetrahydro-1(S)-naphthalenyl)amino]carbonyl]-3-(4-fluorophenyl)-2-quinoxalinepentanoic acid]
0.1 to 2		O=C(O)CCCCc1nc2cc(C(=O)N[C@@H]3CCc4cc(F)ccc43)ccc2nc1-c1ccc(F)cc1 [compound 223, 7-[[(5-fluoro-2,3-dihydro-1H-inden-1(R)-yl)amino]carbonyl]-3-(4-fluorophenyl)-2-quinoxalinepentanoic acid]
0.1 to 2		O=C(O)CCCCc1nc2cc(C(=O)N[C@@H]3CCc4cc(Cl)ccc43)ccc2nc1-c1ccc(F)cc1 [compound 225, 7-[[(5-chloro-2,3-dihydro-1H-inden-1(R)-yl)amino]carbonyl]-3-(4-fluorophenyl)-2-quinoxalinepentanoic acid]
0.1 to 2		O=C(O)CCCCc1nc2cc(C(=O)N[C@@H]3CCc4ccccc43)ccc2nc1-c1ccc(F)cc1 [compound 229, 7-[[(2,3-dihydro-1H-inden-1(R)-yl)amino]carbonyl]-3 - (4-fluorophenyl)-2-quinoxalinepentanoic acid]
2.1 to 20		C[C@@H](NC(=O)c1ccc2nc(-c3ccccc3)c(CCCCC(=O)O)nc2c1)c1ccc(F)cc1 [compound 234, 7-[[[1(R)-(4-fluorophenyl)ethyl]amino]carbonyl]-3-phenyl-2-quinoxalinepentanoic acid]
